Test results taken from PubChem BioAssay AID1963972 (Molecular Pharmacology Branch, DTP, NCI, 2024).
Values joined by “and” are separate entries in the source; they are usually repeats but may differ in a detail not shown here. Identical values can stand only once.

System: 945468-187-T-J2-PDC spheroids viability
Assay: Anticancer human tumor 945468-187-T-J2-PDC patient-derived rectal carcinoma cell line growth inhibition [PI3K]
Settings: spheroids with HUVEC and MSC; for viability, T/C: stronger effect = lower value
Procedure, shortened: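 Tumor cells grown as multi-cell spheroids with HUVEC endothelial cells and MSC fibroblast-like stroma were treated with targeted agents combined with inavolisib, alpelisib, duvelisib or copanlisib. Doses fell in half-log steps from near clinical Cmax, else from 10 microM. Viability was measured.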

[1] = curve of first compound, second compound 0.00316 µM
[2] = curve of first compound, second compound 0.01 µM
[3] = curve of first compound, second compound 0.0316 µM
[4] = curve of first compound, second compound 0.1 µM
[5] = curve of first compound, second compound 0.316 µM
[6] = curve of first compound, second compound 1 µM
[7] = second compound 0.00316 µM, first compound 0.0316 µM
[8] = second compound 0.00316 µM, first compound 0.1 µM
[9] = second compound 0.01 µM, first compound 0.0316 µM
[10] = second compound 0.01 µM, first compound 0.1 µM
[11] = second compound 0.0316 µM, first compound 0.0316 µM
[12] = second compound 0.0316 µM, first compound 0.1 µM
[13] = second compound 0.1 µM, first compound 0.0316 µM
[14] = second compound 0.1 µM, first compound 0.1 µM
[15] = second compound 0.316 µM, first compound 0.0316 µM
[16] = second compound 0.316 µM, first compound 0.1 µM
[17] = second compound 1 µM, first compound 0.0316 µM
[18] = second compound 1 µM, first compound 0.1 µM
[19] = second compound 0.00316 µM, first compound 0.316 µM
[20] = second compound 0.00316 µM, first compound 1 µM
[21] = second compound 0.00316 µM, first compound 3.16 µM
[22] = second compound 0.00316 µM, first compound 10 µM
[23] = second compound 0.01 µM, first compound 0.316 µM
[24] = second compound 0.01 µM, first compound 1 µM
[25] = second compound 0.01 µM, first compound 3.16 µM
[26] = second compound 0.01 µM, first compound 10 µM
[27] = second compound 0.0316 µM, first compound 0.316 µM
[28] = second compound 0.0316 µM, first compound 1 µM
[29] = second compound 0.0316 µM, first compound 3.16 µM
[30] = second compound 0.0316 µM, first compound 10 µM
[31] = second compound 0.1 µM, first compound 0.316 µM
[32] = second compound 0.1 µM, first compound 1 µM
[33] = second compound 0.1 µM, first compound 3.16 µM
[34] = second compound 0.1 µM, first compound 10 µM
[35] = second compound 0.316 µM, first compound 0.316 µM
[36] = second compound 0.316 µM, first compound 1 µM
[37] = second compound 0.316 µM, first compound 3.16 µM
[38] = second compound 0.316 µM, first compound 10 µM
[39] = second compound 1 µM, first compound 0.316 µM
[40] = second compound 1 µM, first compound 1 µM
[41] = second compound 1 µM, first compound 3.16 µM
[42] = second compound 1 µM, first compound 10 µM
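Also: spheroids exposed to compounds for seven days before reading.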

For `CC(C)n1nc(-c2ccc3oc(N)nc3c2)c2c(N)ncnc21` + CC(Nc1ccc2c(c1)OCCn1cc(N3C(=O)OCC3C(F)F)nc1-2)C(N)=O, the IC50 [1] was greater than 100 nM, the IC50 [2] was greater than 100 nM and the IC50 [3] was greater than 100 nM. For the same compound, the IC50 [4] was greater than 100 nM, the IC50 [5] was 75.4 nM and the IC50 [6] was 26.7 nM. For the same compound, the viability, T/C (second compound 0.00316 µM, first compound 0.000316 µM) was 141%, the viability, T/C (second compound 0.00316 µM, first compound 0.001 µM) was 114% and the viability, T/C (second compound 0.00316 µM, first compound 0.00316 µM) was 115%. The viability, T/C (second compound 0.00316 µM, first compound 0.01 µM) was 89.4%, the viability, T/C [7] was 107% and the viability, T/C [8] was 83.7%. It also gave a viability, T/C (second compound 0.01 µM, first compound 0.000316 µM) of 168%, a viability, T/C (second compound 0.01 µM, first compound 0.001 µM) of 101% and a viability, T/C (second compound 0.01 µM, first compound 0.00316 µM) of 108%. It also gave a viability, T/C (second compound 0.01 µM, first compound 0.01 µM) of 91%, a viability, T/C [9] of 88.8% and a viability, T/C [10] of 71%. For the same compound, the viability, T/C (second compound 0.0316 µM, first compound 0.000316 µM) was 105%, the viability, T/C (second compound 0.0316 µM, first compound 0.001 µM) was 85.2% and the viability, T/C (second compound 0.0316 µM, first compound 0.00316 µM) was 109%. The viability, T/C (second compound 0.0316 µM, first compound 0.01 µM) was 106%, the viability, T/C [11] was 95.7% and the viability, T/C [12] was 73.4%. For the same compound, the viability, T/C (second compound 0.1 µM, first compound 0.000316 µM) was 81%, the viability, T/C (second compound 0.1 µM, first compound 0.001 µM) was 112% and the viability, T/C (second compound 0.1 µM, first compound 0.00316 µM) was 108%. It also gave a viability, T/C (second compound 0.1 µM, first compound 0.01 µM) of 91.8%, a viability, T/C [13] of 101% and a viability, T/C [14] of 61.4%. It also gave a viability, T/C (second compound 0.316 µM, first compound 0.000316 µM) of 84.6%, a viability, T/C (second compound 0.316 µM, first compound 0.001 µM) of 89.7% and a viability, T/C (second compound 0.316 µM, first compound 0.00316 µM) of 82.2%. The viability, T/C (second compound 0.316 µM, first compound 0.01 µM) was 81.5%, the viability, T/C [15] was 75.5% and the viability, T/C [16] was 41.8%. For the same compound, the viability, T/C (second compound 1 µM, first compound 0.000316 µM) was 87.4%, the viability, T/C (second compound 1 µM, first compound 0.001 µM) was 103% and the viability, T/C (second compound 1 µM, first compound 0.00316 µM) was 75.5%. The viability, T/C (second compound 1 µM, first compound 0.01 µM) was 61.1%, the viability, T/C [17] was 52.6% and the viability, T/C [18] was 29.4%.

In the case of `Cn1ncnc1[C@H]1c2n[nH]c(=O)c3cc(F)cc(c23)N[C@@H]1c1ccc(F)cc1`, the viability, T/C (compound 0.000316 µM) is reported as 105% [middle of 4 runs], the viability, T/C (compound 0.00316 µM) is reported as 93.9% [middle of 4 runs] and the viability, T/C (compound 0.01 µM) is reported as 88.9% [middle of 4 runs]. For the same compound, the viability, T/C (compound 0.0316 µM) was 110% (2×) and 104% and 93.3%, the viability, T/C (compound 0.1 µM) was 104% [middle of 4 runs] and the IC50 (curve of compound) was greater than 100 nM.

`CCCS(=O)(=O)Nc1ccc(F)c(C(=O)c2c[nH]c3ncc(-c4ccc(Cl)cc4)cc23)c1F` + COc1c(OCCCN2CCOCC2)ccc2c3n(c(=NC(=O)c4cnc(N)nc4)nc12)CCN3 was tested, and the IC50 [1] was 5780 nM, the IC50 [2] was 6430 nM and the IC50 [3] was 5580 nM. It also gave an IC50 [4] of 6050 nM, an IC50 [5] of less than 31.6 nM and an IC50 [6] of less than 31.6 nM. The viability, T/C [7] was 95.3%, the viability, T/C [8] was 106% and the viability, T/C [19] was 111%. The viability, T/C [20] was 116%, the viability, T/C [21] was 89.2% and the viability, T/C [22] was 14.6%. It also gave a viability, T/C [9] of 109%, a viability, T/C [10] of 82% and a viability, T/C [23] of 79.8%. It also gave a viability, T/C [24] of 92.5%, a viability, T/C [25] of 105% and a viability, T/C [26] of 22.9%. For the same compound, the viability, T/C [11] was 100%, the viability, T/C [12] was 91.4% and the viability, T/C [27] was 90.2%. It also gave a viability, T/C [28] of 103%, a viability, T/C [29] of 75.2% and a viability, T/C [30] of 24.2%. It also gave a viability, T/C [13] of 73.1%, a viability, T/C [14] of 90.5% and a viability, T/C [31] of 77.7%. For the same compound, the viability, T/C [32] was 77.6%, the viability, T/C [33] was 77.2% and the viability, T/C [34] was 29%. For the same compound, the viability, T/C [15] was 38.7%, the viability, T/C [16] was 37% and the viability, T/C [35] was 36.9%. It also gave a viability, T/C [36] of 34%, a viability, T/C [37] of 35.3% and a viability, T/C [38] of 21.5%. The viability, T/C [17] was 21.4%, the viability, T/C [18] was 22.6% and the viability, T/C [39] was 21.9%. For the same compound, the viability, T/C [40] was 19.5%, the viability, T/C [41] was 25.7% and the viability, T/C [42] was 15.6%.

Compound `CC1(C)CCC(Nc2ncc(C(F)(F)F)c(-c3c[nH]c4c(P(C)(C)=O)c(C#N)ccc34)n2)CN1` (configuration not stated) + COc1c(OCCCN2CCOCC2)ccc2c3n(c(=NC(=O)c4cnc(N)nc4)nc12)CCN3 has an IC50 [1] of 663 nM, an IC50 [2] of 871 nM and an IC50 [3] of 745 nM. It also gave an IC50 [4] of 663 nM, an IC50 [5] of less than 31.6 nM and an IC50 [6] of less than 31.6 nM. The viability, T/C [7] was 91%, the viability, T/C [8] was 86.8% and the viability, T/C [19] was 66.3%. The viability, T/C [20] was 40.5%, the viability, T/C [21] was 32.6% and the viability, T/C [22] was 27.6%. It also gave a viability, T/C [9] of 92.9%, a viability, T/C [10] of 89.8% and a viability, T/C [23] of 76%. The viability, T/C [24] was 46.8%, the viability, T/C [25] was 30.2% and the viability, T/C [26] was 28.7%. The viability, T/C [11] was 110%, the viability, T/C [12] was 85% and the viability, T/C [27] was 69.2%. It also gave a viability, T/C [28] of 38.9%, a viability, T/C [29] of 37.7% and a viability, T/C [30] of 25.9%. The viability, T/C [13] was 86.5%, the viability, T/C [14] was 88.4% and the viability, T/C [31] was 62.8%. For the same compound, the viability, T/C [32] was 43.5%, the viability, T/C [33] was 37.3% and the viability, T/C [34] was 31.8%. For the same compound, the viability, T/C [15] was 42%, the viability, T/C [16] was 44.3% and the viability, T/C [35] was 40.2%. It also gave a viability, T/C [36] of 33.8%, a viability, T/C [37] of 31.2% and a viability, T/C [38] of 17.2%. The viability, T/C [17] was 21.3%, the viability, T/C [18] was 19.5% and the viability, T/C [39] was 22.8%. For the same compound, the viability, T/C [40] was 19%, the viability, T/C [41] was 17.7% and the viability, T/C [42] was 10.2%.
